{"source": "patent US20220016215A1", "about": "“GIP RECEPTOR AGONIST PEPTIDE COMPOUNDS AND USES THEREOF” (TAKEDA PHAARMACEUTICAL COMPANY LIMITED, priority 2018, published 2022)", "key": {"[1]": {"target": "T1, human GIPR (Homo sapiens, UniProt P48546)", "T1 construct": "expressed in transfected cells", "T1 sequence (P48546 22-466)": "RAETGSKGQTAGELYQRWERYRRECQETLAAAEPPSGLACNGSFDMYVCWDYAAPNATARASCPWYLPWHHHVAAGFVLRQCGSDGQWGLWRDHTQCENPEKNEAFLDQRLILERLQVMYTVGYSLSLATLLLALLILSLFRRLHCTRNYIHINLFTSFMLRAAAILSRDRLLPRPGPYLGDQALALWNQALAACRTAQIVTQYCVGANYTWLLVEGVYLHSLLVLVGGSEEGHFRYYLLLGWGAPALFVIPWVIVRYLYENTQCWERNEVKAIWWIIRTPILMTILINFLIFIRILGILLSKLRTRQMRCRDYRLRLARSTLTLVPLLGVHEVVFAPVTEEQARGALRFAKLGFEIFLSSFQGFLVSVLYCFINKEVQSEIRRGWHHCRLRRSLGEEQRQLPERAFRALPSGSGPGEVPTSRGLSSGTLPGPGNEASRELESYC", "experiment": "Agonist activity on human GIPR, CRE-luciferase reporter assay (increase in intracellular cAMP as indicator)", "type": "cell-based", "method_in_brief": "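CHO-K1 cells carrying CRE-luciferase and stably expressing human GIPR, 5×10^3 cells/well, exposed to compound for 4 hours at 37° C.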"}, "[2]": {"target": "human GLP-1R (Homo sapiens, UniProt P43220)", "sequence (P43220 24-463)": "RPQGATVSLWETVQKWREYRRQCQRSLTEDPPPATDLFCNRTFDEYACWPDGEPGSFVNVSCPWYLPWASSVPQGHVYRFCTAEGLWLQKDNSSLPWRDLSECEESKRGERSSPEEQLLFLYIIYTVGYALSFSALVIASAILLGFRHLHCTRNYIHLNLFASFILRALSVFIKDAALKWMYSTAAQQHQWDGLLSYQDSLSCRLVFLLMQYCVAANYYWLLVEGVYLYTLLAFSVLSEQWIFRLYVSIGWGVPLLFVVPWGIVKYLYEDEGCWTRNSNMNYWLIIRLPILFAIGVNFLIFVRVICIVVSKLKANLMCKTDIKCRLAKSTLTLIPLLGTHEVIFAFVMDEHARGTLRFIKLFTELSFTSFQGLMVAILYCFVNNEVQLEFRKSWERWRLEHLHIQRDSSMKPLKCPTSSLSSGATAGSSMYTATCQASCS", "experiment": "Agonist activity on human GLP-1R, CRE-luciferase reporter assay (increase in intracellular cAMP as indicator)", "type": "cell-based", "parameters": "expressed in transfected cells", "settings": "hGLP-1R/CRE-luc/CHO-K1 cells, 4 h incubation; read-out: GLP1R EC50 nM (B)", "excerpt": "The human GIPR gene having an identical sequence to Genebank Accession No. U39231 is cloned into a pMSRα-neo vector to prepare hGIPR/pMSRα-neo.\n(3) Construction of Reporter Plasmid\nFour copies of a cAMP responsive sequence and a Zeocin resistance gene are transferred to pGL3(R2.2)-Basic Vector (Promega) to construct a Cre-luc(Zeo) reporter plasmid.\n(5) Construction of Expression Plasmid of Human GLP-1R Gene\nThe human GLP-1R gene having an identical sequence to Genebank Accession No. NM_002062 is cloned into a pIRESneo3 vector to prepare hGLP-1/pIRESneo3.\n(6) Transfer of Human GLP-1R Gene and Reporter Plasmid to CHO-K1 Cell and Obtaining of Expressing Cell\nThe Cre-luc (Zeo) obtained in (3) and the plasmid hGLP-1/pIRESneo3 obtained in (5) transferred to the CHO-K1 cell to obtain a transformant. Subsequently, the cell line inducing the luciferase expression, hGLP-1R/CRE-luc/CHO-K1 cell, is selected from the obtained transformant by adding GLP-1.\nThe GLP-1R agonist activity is assayed in the same manner as above using the hGLP-1R/CRE-luc/CHO-K1 cell."}, "[3]": {"test_system": "morphine (0.6 mg/kg, s.c.)-induced emesis in ferrets", "experiment": "Morphine-induced acute emetic model in male ferrets", "type": "in vivo, ferret", "method_in_brief": "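Male ferrets (4 per group) received peptide at 10 or 30 nmol/kg s.c. in 0.09% Tween 80/10% DMSO/saline, or vehicle. Morphine 0.6 mg/kg s.c. was given 4 or 120 h later, and abdominal contractions, vomiting, licking and fidgeting were recorded for up to 360 min.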"}, "[4]": {"settings": "ferret, morphine 0.6 mg/kg s.c. 0.5 h after drug, 128 μg/kg s.c."}, "[5]": {"settings": "ferret, morphine 0.6 mg/kg s.c. 0.5 h after drug, 128 μg/kg s.c., non-responders counted as 30 min"}}, "data": [{"smiles": "CC[C@H](C)[C@H](NC(=O)[C@H](CO)NC(=O)[C@H](Cc1ccc(O)cc1)NC(=O)[C@H](CC(=O)O)NC(=O)[C@H](CO)NC(=O)[C@@H](NC(=O)[C@H](Cc1ccccc1)NC(=O)[C@@H](NC(=O)CNC(=O)[C@@H]1CCCN1C(=O)[C@H](C)NC(=O)[C@@H](N)Cc1ccc(O)cc1)[C@@H](C)O)[C@@H](C)CC)C(=O)N[C@@H](C)C(=O)N[C@@H](CCSC)C(=O)N[C@@H](CC(=O)O)C(=O)N[C@@H](CCCCN)C(=O)N[C@H](C(=O)N[C@@H](Cc1c[nH]cn1)C(=O)N[C@@H](CCC(N)=O)C(=O)N[C@@H](CCC(N)=O)C(=O)N[C@@H](CC(=O)O)C(=O)N[C@@H](Cc1ccccc1)C(=O)N[C@H](C(=O)N[C@@H](CC(N)=O)C(=O)N[C@@H](Cc1c[nH]c2ccccc12)C(=O)N[C@@H](CC(C)C)C(=O)N[C@@H](CC(C)C)C(=O)N[C@@H](C)C(=O)N[C@@H](CCC(N)=O)C(=O)N[C@@H](CCCCN)C(=O)N1CCC[C@H]1C(=O)N[C@@H](CO)C(=O)N[C@@H](CO)C(=O)NCC(=O)N[C@@H](C)C(=O)N1CCC[C@H]1C(=O)N1CCC[C@H]1C(=O)N1CCC[C@H]1C(=O)N[C@@H](CO)C(N)=O)C(C)C)[C@@H](C)CC", "note": "[Compound 12]", "values": [{"measurement": "Selectivity Ratio (B/A)", "setting": "[1]; GLP1R EC50 / GIPR EC50", "value": ">23,810"}, {"measurement": "EC50", "setting": "[1]; hGIPR/CRE-LUC/CHO-K1 cells, 4 h incubation, read-out: GIPR EC50 nM (A)", "value": 0.042, "unit": "nM"}, {"measurement": "EC50", "setting": "[2]", "value": "> 1000", "unit": "nM"}, {"measurement": "Emesis: Duration", "setting": "[3]; [4]", "value": "1.5 ± 2.4", "unit": "min"}, {"measurement": "Emesis: Frequency", "setting": "[3]; [4]", "value": "3.8 ± 5.7"}, {"measurement": "Emesis: No. of animals (responder/used)", "setting": "[3]; [4]", "value": "2/4"}, {"measurement": "Fidget: Duration", "setting": "[3]; [4]", "value": "1.3 ± 1.9", "unit": "min"}, {"measurement": "Fidget: Frequency", "setting": "[3]; [4]", "value": "0.8 ± 1.0"}, {"measurement": "Fidget: No. of animals (responder/used)", "setting": "[3]; [4]", "value": "2/4"}, {"measurement": "Licking: Duration", "setting": "[3]; [4]", "value": "1.5 ± 1.7", "unit": "min"}, {"measurement": "Licking: Frequency", "setting": "[3]; [4]", "value": "1.3 ± 1.0"}, {"measurement": "Licking: No. of animals (responder/used)", "setting": "[3]; [4]", "value": "3/4"}, {"measurement": "Retching: Duration", "setting": "[3]; [4]", "value": "1.5 ± 2.4", "unit": "min"}, {"measurement": "Retching: Frequency", "setting": "[3]; [4]", "value": "3.3 ± 5.3"}, {"measurement": "Retching: No. of animals (responder/used)", "setting": "[3]; [4]", "value": "2/4"}, {"measurement": "Vomiting: Duration", "setting": "[3]; [4]", "value": "0.5 ± 0.6", "unit": "min"}, {"measurement": "Vomiting: Frequency", "setting": "[3]; [4]", "value": "0.5 ± 0.6"}, {"measurement": "Vomiting: No. of animals (responder/used)", "setting": "[3]; [4]", "value": "2/4"}, {"measurement": "Emesis: Latency", "setting": "[3]; [5]", "value": "18.3 ± 13.7", "unit": "min"}, {"measurement": "Fidget: Latency", "setting": "[3]; [5]", "value": "18.3 ± 13.7", "unit": "min"}, {"measurement": "Licking: Latency", "setting": "[3]; [5]", "value": "13.8 ± 11.3", "unit": "min"}, {"measurement": "Retching: Latency", "setting": "[3]; [5]", "value": "18.3 ± 13.7", "unit": "min"}, {"measurement": "Vomiting: Latency", "setting": "[3]; [5]", "value": "19.5 ± 12.1", "unit": "min"}, {"measurement": "Attenuation of morphine-induced emesis (in words)", "setting": "[3]; male ferrets, 30 nmol/kg s.c. 30 minutes before morphine 0.6 mg/kg s.c.", "value": "completely attenuated"}, {"measurement": "Comment: Anti-Emetic Activity (inhibition) on morphine-induced emesis", "setting": "[3]; male ferrets, summary of the morphine experiments", "value": "partial inhibition"}]}]}
